The source of these data is article PMC6934184, “Selective DNA-PKcs inhibition extends the therapeutic index of localized radiotherapy and chemotherapy” (The Journal of Clinical Investigation, 2019).

This test addresses T1, MAPKAPK5 (PRAK) (Homo sapiens, UniProt Q8IW41).
T1 construct: purchased Thermo Fisher Scientific (Life Technologies) SelectScreen
Kind of test: SelectScreen Z'LYTE. Type of test: biochemical. Put shortly: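 Percent values come from Thermo SelectScreen profiling of NU5455, combining activity and binding assays. CSF1R was run in Z'LYTE format at Km app ATP, and CAMK1 in Adapta format with ATP listed at 10.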

T1 sequence (Q8IW41 whole entry): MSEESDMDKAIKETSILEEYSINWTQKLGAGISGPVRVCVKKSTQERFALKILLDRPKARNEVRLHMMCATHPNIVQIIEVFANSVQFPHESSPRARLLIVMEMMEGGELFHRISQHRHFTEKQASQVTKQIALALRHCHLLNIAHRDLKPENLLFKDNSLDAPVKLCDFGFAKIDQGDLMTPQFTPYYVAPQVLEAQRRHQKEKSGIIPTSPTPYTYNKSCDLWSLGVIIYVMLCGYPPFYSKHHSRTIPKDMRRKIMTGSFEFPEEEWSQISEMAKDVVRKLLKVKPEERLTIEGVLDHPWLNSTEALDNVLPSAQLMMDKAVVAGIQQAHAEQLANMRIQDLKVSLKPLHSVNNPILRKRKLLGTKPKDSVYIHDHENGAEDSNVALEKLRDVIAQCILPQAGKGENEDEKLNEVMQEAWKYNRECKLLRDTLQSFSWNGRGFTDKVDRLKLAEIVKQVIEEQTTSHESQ

By inhibition is commonly meant how much of the control response was suppressed. Compound `CN(C(=O)CN1CCOCC1)c1ccc2sc3c(-c4cccc5c(=O)cc(N6CC7CCC(C6)O7)oc45)cccc3c2c1` [NU5455] gave an inhibition at 1 µM of 0.6%.
